Biological target: T1, UDP-3-O-acyl-N-acetylglucosamine deacetylase (Aquifex aeolicus (strain VF5), UniProt O67648)
T1 sequence (O67648 whole entry): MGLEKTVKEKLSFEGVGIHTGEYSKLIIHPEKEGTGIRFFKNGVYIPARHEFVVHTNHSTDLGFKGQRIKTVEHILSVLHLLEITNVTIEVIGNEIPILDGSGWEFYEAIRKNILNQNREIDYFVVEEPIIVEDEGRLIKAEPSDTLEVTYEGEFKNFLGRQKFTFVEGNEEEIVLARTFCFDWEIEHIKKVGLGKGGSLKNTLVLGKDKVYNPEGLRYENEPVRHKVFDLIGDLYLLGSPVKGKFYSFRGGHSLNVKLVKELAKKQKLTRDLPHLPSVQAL
Assay: ITC
Settings: pH 7; 25 °C

Row | Kd | SMILES
1 | 732 nM | NC[C@H](NC(=O)c1ccc(-c2ccccc2)cc1)C(=O)NO [CS249]
2 | 242 nM | NC[C@H](NC(=O)c1ccc(-c2ccc(Br)cc2)cc1)C(=O)NO [CS250]
3 | 122 nM | C[C@@H](O)[C@H](NC(=O)c1ccc(-c2ccc(Br)cc2)cc1)C(=O)NO [CS258]
4 | 1210 nM | C[C@@H](O)[C@H](NC(=O)c1ccc(C#Cc2ccccc2)cc1)C(=O)NO [CS259]
5 | 224 nM | C[C@@H](O)[C@H](NC(=O)c1ccc(-c2ccccc2)cc1)C(=O)NO [CS263]

Row | SMILES | Kd
6 | O=C(NO)[C@H]1COC(c2ccc(F)c(C(F)(F)F)c2)=N1 [CS271] | 3960 nM
7 | O=C(NO)[C@H]1COC(c2cc3cc(F)ccc3[nH]2)=N1 [CS272] | 2250 nM
8 | O=C(NO)c1csc(-c2ccc(F)c(C(F)(F)F)c2)n1 [CS277] | 3500 nM
9 | O=C(NO)[C@H]1COC(c2ccc(F)cc2)=N1 [CS279] | 14800 nM

From BindingDB's records for aid1799746 (Csar, 2012)
